Results as given in BindingDB's records for doi:10.7270/Q2CV4GM1 (D3R/Abbott, 2015).
pIC50: −log10 of the molar value. “And” between values parts separate entries of the source, which are not always exact repeats. Equal entries are not always repeated.

Target: T1, Tyrosine-protein kinase SYK [355-635] (Homo sapiens, UniProt P43405)
T1 construct: 355-635
Assay: SYK assay_HTRF

SMILES	pIC50
CNC(=O)COc1ccc(Nc2nccc(Nc3cccc4[nH]ncc34)n2)cc1 [GTC000197A]	6.52
N#Cc1ccc(Nc2nccc(Nc3cccc4[nH]ncc34)n2)cc1 [GTC000139A]	6.68
CCN(c1nc(Nc2cccc(-c3cnco3)c2)ncc1Cl)c1cccc2[nH]ncc12 [GTC000317A]	8.00 and 7.61 and 7.38
Cc1cc(=O)[nH]c2ccc(Nc3nccc(Nc4cccc5[nH]ncc45)n3)cc12 [GTC000159A]	7.55
CCN(c1nc(Nc2ccc(C)c(S(=O)(=O)NCCO)c2)ncc1F)c1cccc2[nH]ncc12 [GTC000343A]	7.49
COCCCN(c1nc(Nc2ccc3cnn(C)c3c2)ncc1F)c1cccc2[nH]ncc12 [GTC000298A]	7.97 and 7.81 and 7.82
O=C(Cc1ccc(Nc2nccc(Nc3cccc4[nH]ncc34)n2)cc1)Nc1ccc(Cl)cc1 [GTC000214A]	5.86
CCCN(c1nc(Nc2ccc3c(c2)S(=O)(=O)CC3)ncc1F)c1cccc2[nH]ncc12 [GTC000350A]	7.39
OCCCN(c1nc(Nc2ccc3nn[nH]c3c2)ncc1F)c1cccc2[nH]ncc12 [GTC000295A]	8.02
Cc1ncoc1-c1cccc(Nc2nccc(Nc3cccc4[nH]ncc34)n2)c1 [GTC000134A]	7.53 and 7.30 and 7.18 and 6.89
COCCCN(c1nc(Nc2ccc3nn[nH]c3c2)ncc1F)c1cccc2[nH]ncc12 [GTC000336A]	7.59
COc1ccc(Nc2nccc(Nc3cccc4[nH]ncc34)n2)cc1Cl [GTC000141A]	6.85 and 6.84 and 6.55 and 6.21
O=S(=O)(Nc1ccccn1)c1ccc(Nc2nccc(Nc3cccc4[nH]ncc34)n2)cc1 [GTC000191A]	6.17 and 6.24
O=S1(=O)NCc2ccc(Nc3nccc(N(CCCCO)c4cccc5[nH]ncc45)n3)cc21 [GTC000241A]	8.54
CN1C(=O)c2ccc(Nc3nccc(Nc4cccc5[nH]ncc45)n3)cc2C1=O [GTC000170A]	6.24
CCN(c1nc(Nc2cc(S(N)(=O)=O)ccc2C)ncc1F)c1cccc2[nH]ncc12 [GTC000364A]	6.99

SMILES	pIC50
Cn1ncc2ccc(Nc3nccc(N(CCCCO)c4cccc5[nH]ncc45)n3)cc21 [GTC000274A]	8.23
COC(=O)c1cccc(Nc2nccc(Nc3cccc4[nH]ncc34)n2)c1 [GTC000127B]	6.60 and 7.23 and 6.90
CCN(c1nc(Nc2ccc3c(C)nn(CCCO)c3c2)ncc1F)c1cccc2[nH]ncc12 [GTC000242A]	8.44 and 8.02 and 8.80 and 8.56 and 8.41
O=C1Nc2ccc(Nc3nccc(N(CCO)c4cccc5[nH]ncc45)n3)cc2CO1 [GTC000258A]	8.30
CCN(c1nc(Nc2ccc3cnn(C)c3c2)ncc1Cl)c1cccc2[nH]ncc12 [GTC000334A]	7.62
O=C(O)CCCCN(c1ccnc(Nc2ccc3c(c2)S(=O)(=O)NC3)n1)c1cccc2[nH]ncc12 [GTC000229A]	8.85 and 8.92 and 8.61
O=c1[nH]c2ccc(Nc3nccc(N(CC4CCNCC4)c4cccc5[nH]ncc45)n3)cc2[nH]1 [GTC000292A]	7.97
COc1ccc(NC(=O)Cc2ccc(Nc3nccc(Nc4cccc5[nH]ncc45)n3)cc2)cc1 [GTC000208A]	6.07
CNC(=O)c1ccc(Nc2nccc(Nc3cccc4[nH]ncc34)n2)cc1 [GTC000146A]	7.19 and 6.94
O=S(=O)(Nc1nccs1)c1ccc(Nc2nccc(Nc3cccc4[nH]ncc34)n2)cc1 [GTC000186A]	6.21 and 6.37
CCN(c1nc(Nc2ccc(-c3cnco3)c(OC)c2)ncc1F)c1cccc2[nH]ncc12 [GTC000362A]	7.06
O=C(Cc1ccc(Nc2nccc(Nc3cccc4[nH]ncc34)n2)cc1)Nc1ccc(C(F)(F)F)cc1 [GTC000211A]	5.53
O=S(=O)(O)c1cccc(Nc2nccc(Nc3cccc4[nH]ncc34)n2)c1 [GTC000190A]	5.96
CCN(c1nc(Nc2ccc3c(c2)CCN3C(=O)C(F)(F)F)ncc1F)c1cccc2[nH]ncc12 [GTC000354A]	7.23
O=C(O)COc1ccc(Nc2nccc(Nc3cccc4[nH]ncc34)n2)cc1 [GTC000198A]	6.49
